# US20140343118A1, “METHODS OF TREATMENT USING ARYLCYCLOPROPYLAMINE COMPOUNDS” (Duke University, priority 2013, published 2014)
# What was measured:
# [1] = test system: HCC1937 cells; conditions: HCC1937, 250 μM every other day for 10 days
# Procedure: (§1) After 2 d, the cells were treated with fresh media containing the inhibitors at the concentrations indicated. Every 2 d, for a total of 6 or 10 d, respectively, the cells were treated similarly. […] Data are presented as the mean±SEM for triplicate wells in one representative experiment.
# [2] = test system: HCC1143 cells; conditions: HCC1143, 250 μM every other day for 10 days
# Procedure: as §1
# [3] = test system: MDA-MB-231 cells; conditions: MDA-MB-231, 24 h, up to 500 μM
# [4] = test system: histone H3K4-Me2 and H3K9-Me2 in MCF7 cells; test: Western blot of global histone dimethylation; type: cell-based; conditions: inhibitors 250 μM for 24 h
# Procedure: (§2) MCF7 cells or MDA-MB 231 cells were seeded in six-well plates. Cells were treated after 48 h with inhibitor for 24 h. Whole-cell extracts were isolated using RIPA buffer [50 mM Tris (pH 8.0), 200 mM NaCl, 1.5 mM MgCl2, 1% Nonidet P-40 (NP40), 1 mM EGTA, 10% glycerol, 50 mM NaF, 2 mM Na3VO4 and 1× protease inhibitor mixture]. Crude histones were extracted from the lysate pellet by resuspending in water and precipitating with 25% TCA. The pellets were washed with acetone and then resuspended. Concentration of whole-cell lysate or resuspended histones was determined using Bio-Rad Bradford reagent using BSA for standard curve. For each sample, proteins were resolved by SDS-PAGE and transferred to a PVDF membrane (Biorad).
# (§3) H3K4-Me2 was detected using polyclonal rabbit antibody (Millipore 07-030). H3K9-Me2 was detected using a monoclonal mouse antibody (Abcam ab1220). Total H3 was detected using a polyclonal rabbit antibody (Abcam ab1791). LSD1 was detected using a monoclonal rabbit antibody (Millipore 05-939) or polyclonal rabbit antibody (Abcam ab17721). ERα (D12) was detected using monoclonal mouse antibody (Santa Cruz sc-8005). GAPDH was detected using polyclonal goat antibody (Santa Cruz sc-20357). Secondary antibodies were purchased from Bio-Rad.
# [5] = test system: histone H3K4-Me2 and H3K9-Me2 in MDA-MB-231 cells; test: Western blot of global histone dimethylation; type: cell-based; conditions: inhibitors 250 μM for 24 h
# Procedure: as §2, §3
# [6] = test system: MCF7 cells; conditions: MCF7, 24 h, up to 500 μM
# [7] = test system: MCF7 cells; test: Cell proliferation assay (total DNA content); type: cell-based; conditions: MCF7, 250 μM every other day for 10 days
# Procedure: as §1
# [8] = test system: MDA-MB-231 cells; test: Cell proliferation assay (total DNA content); type: cell-based; conditions: MDA-MB-231, 250 μM every other day for 10 days
# Procedure: as §1
# [9] = test system: MCF7 cells; test: Cell cycle analysis (BrdU/PI flow cytometry); type: cell-based; conditions: MCF7, 250 μM, 24 hours
# Procedure: MCF7 cells were seeded at 400,000 cells per well in 6 well plates in DMEM/F12 (Invitrogen) containing 8% FBS, 1 mM sodium pyruvate and 0.1 mM non-essential amino acids. After 24 h, the cells were treated with fresh media containing the 250 μM inhibitor. After 48 h of treatment, the cells were pulsed for 2 h with BrdU (10 μg mL^−1). The cells were trypsinized and collected using cold IFA buffer (3 mL) (4% charcoal stripped FBS, 150 mM sodium chloride, 10 mM HEPES, pH 7.5). They were washed with PBS, resuspended in 1 mL of PBS and fixed with 70% ethanol. The cells were incubated for 30 min on ice and then stored at −20° C. The cells were washed with PBS containing 0.5% BSA. The pellet was denatured with 2 M hydrochloric acid containing 0.5% BSA. The residual acid was neutralized using 0.1M sodium borate, pH 8.5. The cell pellet was resuspended in dilute anti-BrdU-alexa fluor-488 antibody (Molecular Probes) (PBS+0.5% Tween 20+0.5% BSA+5% antibody). After washing excess away, the cell pellets were resuspended in PI+RNase A (10 μg mL^−1 propidium iodide and 10 μg mL^−1 RNase A in PBS). The cells were vortexed and analyzed using flow cytometry (Accuri C6).
# [10] = target: T1, recombinant LSD1 (Homo sapiens, UniProt O60341); test: LSD1 horseradish peroxidase coupled enzyme assay, time-dependent inactivation kinetics; type: biochemical
# T1 construct: made in house
# Procedure: For example, compounds may be assayed for their ability to inhibit the enzymatic activity of recombinant LSD1 utilizing a horseradish peroxidase coupled assay for the detection of hydrogen peroxide formed in the demethylase catalytic cycle.
# LSD1 overexpression, purification and horseradish peroxidase coupled enzyme assay were performed as previously described.
# Inhibitors were prepared as 100 mM stocks in dimethylsulfoxide (DMSO) before dilution into assay reagents at appropriate concentrations. Progress curves for time-dependent enzyme inactivation were fit to Equation 1
# Product=(vi/kobs)*(1−exp^−kobs*t) (1)
# to obtain values of kobs as a function of inhibitor concentration, which were then fit to Equation 2 to obtain values of kinact and K1.
# [11] = target: T2, MAO B (Homo sapiens, UniProt P27338); test: Inhibition kinetics of MAO B
# T2 sequence (P27338 1-520): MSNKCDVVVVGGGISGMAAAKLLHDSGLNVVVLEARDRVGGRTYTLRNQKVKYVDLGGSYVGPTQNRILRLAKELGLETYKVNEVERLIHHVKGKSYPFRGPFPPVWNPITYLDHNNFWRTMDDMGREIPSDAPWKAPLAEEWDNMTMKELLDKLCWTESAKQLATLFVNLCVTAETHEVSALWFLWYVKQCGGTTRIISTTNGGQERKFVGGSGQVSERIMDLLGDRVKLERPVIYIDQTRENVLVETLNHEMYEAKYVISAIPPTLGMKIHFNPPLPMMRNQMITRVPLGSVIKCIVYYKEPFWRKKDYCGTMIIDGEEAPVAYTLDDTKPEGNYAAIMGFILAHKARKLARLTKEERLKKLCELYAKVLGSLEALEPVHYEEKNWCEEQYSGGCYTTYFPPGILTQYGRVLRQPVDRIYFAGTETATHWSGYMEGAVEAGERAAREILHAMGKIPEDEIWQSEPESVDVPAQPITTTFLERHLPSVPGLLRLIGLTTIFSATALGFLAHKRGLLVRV
compound,measurement,setting,value
"N[C@@H]1C[C@H]1c1ccccc1 (relative stereo) [Compound 2-PCPA, trans-2-Phenylcyclopropylamine]",cell proliferation,[1],significantly decreased cell proliferation
same,cell proliferation,[2],significantly decreased cell proliferation
same,induction of apoptosis,[3],did not induce apoptosis
same,level of global histone H3K4-Me2,[4],increased
same,level of global histone H3K9-Me2,[4],significant changes were not observed
same,level of global histone H3K4-Me2,[5],robust increases
same,level of global histone H3K9-Me2,[5],robust increases
same,induction of apoptosis,[6],did not induce apoptosis
same,cell proliferation,[7],significantly decreased cell proliferation
same,cell proliferation,[8],significantly decreased cell proliferation
same,"cell cycle arrest (accumulation in G1 and G2/M, decrease in S phase)",[9],growth arrested
CCOc1ccc(C2CC2N)cc1 (stereo not shown) [Compound 1b],kinact,[10]; LSD1 inactivation,0.02 ± 0.002 s⁻¹
NC1CC1c1ccc(Oc2ccccc2)cc1 (stereo not shown) [Compound 1d],kinact,[11],0.032 ± 0.002 s⁻¹
NC1CC1c1cccc(OCc2ccccc2)c1 (stereo not shown) [Compound 1e],kinact,[10]; LSD1 inactivation,0.025 ± 0.005 s⁻¹
CC(C)(C)c1ccc(Sc2ccc(C3CC3N)cc2)cc1 (stereo not shown) [Compound 1f],Ki,[10]; LSD1 inactivation,540 ± 160 µM
same,kinact,[10]; LSD1 inactivation,0.022 ± 0.003 s⁻¹
C#CCNCc1ccccc1 [Compound 2a],kinact/KI,[10]; LSD1 inactivation,< 0.6 M⁻¹ s⁻¹
C#CCNCc1ccc(OC(C)C)cc1 [Compound 2b],kinact/KI,[10]; LSD1 inactivation,< 0.8 M⁻¹ s⁻¹
C#CCNCc1ccc(Oc2ccccc2)cc1 [Compound 2c],kinact/KI,[10]; LSD1 inactivation,< 0.3 M⁻¹ s⁻¹
C#CCN(C)Cc1ccccc1 [pargyline],concentration needed to inhibit LSD1 in vitro,[10],greater than 5 mM
same,kinact/KI,[10]; LSD1 inactivation,< 0.2 M⁻¹ s⁻¹
same,enzymatic activity remaining,"[10]; concentrations as high as 10 mM, prolonged exposure",greater than 70%
